Assay results reported in US20250115654A1, “PHARMACEUTICAL COMPOSITION OF GLP-1 RECEPTOR AND GIP RECEPTOR DUAL AGONIST, AND USE THEREOF” (FUJIAN SHENGDI PHARMACEUTICAL CO., LTD., priority 2021, published 2025).
Numbered stars: 1 amine (or outer) side, 2 acyl side, 3 side chain; on linkers, the order of the positions; unused ones are H or OH. Square brackets hold non-standard residues; d marks the D form. Side chains are listed from the residue outwards. Peptide text beside a SMILES is read from it. * marks the point of attachment. C20 diacid = O=C(O)CCCCCCCCCCCCCCCCCCC(=O)*; γGlu = O=C(O)[C@H](CCC(=O)[*:2])N[*:1]; AEEA = NCCOCCOCC(=O)O; Aib = CC(C)(N)C(=O)O

Tests used:
[1] = tested on: DIO mice; test: Food intake of DIO (diet-induced obesity) mice; assay type: in vivo, C57BL/6 mice
Procedure: (§1) High-fat food-induced-obesity male C57BL/6 mice (weighing 35-55 g, aged 10-12 weeks, purchased from Shanghai Jiesijie Laboratory Animal Co., Ltd.) were tested. […] According to the experimental design, the body weight of each mouse was measured and recorded on day 0, day 3, day 6, and so on to day 27, the average body weight of each group of mice was calculated, and body weight change curves were plotted by taking the body weight on the first day as the standard. At the end, the fat and other visceral organs of each part of the mice were taken out and weighed, and the viscera/brain ratio for fat in each part of each mouse was calculated. The effect of the drug on the fat was determined by comparing the change in the viscera/brain ratio for fat of different parts of each group of mice.
The food intake of mice in each group was measured daily during the experiment.

[2] = target: human GLP-1R (Homo sapiens, UniProt P43220); test: Agonist activity against GLP-1R, cAMP HTRF in CHO-K1/GLP-1R/CRE-luc stable cells; details: Activity against human GLP-1R (EC50 nM), Table 6 run
[3] = tested on: diet-induced-obesity mice; test: Viscera/brain ratio for fat mass in different parts of diet-induced obesity mice; assay type: in vivo, C57BL/6 mice
Procedure: as §1

Sequence of human GLP-1R (P43220 24-463): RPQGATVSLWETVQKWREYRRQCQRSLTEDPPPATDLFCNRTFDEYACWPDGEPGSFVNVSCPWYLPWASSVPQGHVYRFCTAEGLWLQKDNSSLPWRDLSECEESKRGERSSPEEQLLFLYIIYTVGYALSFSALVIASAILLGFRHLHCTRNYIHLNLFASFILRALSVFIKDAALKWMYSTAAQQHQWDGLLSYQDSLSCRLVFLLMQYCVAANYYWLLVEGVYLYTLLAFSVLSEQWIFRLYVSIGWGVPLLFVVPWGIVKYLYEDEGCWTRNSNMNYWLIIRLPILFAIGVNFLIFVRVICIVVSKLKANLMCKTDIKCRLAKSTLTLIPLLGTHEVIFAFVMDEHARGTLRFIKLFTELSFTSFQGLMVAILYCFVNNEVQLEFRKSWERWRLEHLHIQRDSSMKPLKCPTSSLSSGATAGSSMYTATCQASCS

CC[C@H](C)[C@H](NC(=O)[C@H](CCCCN)NC(=O)[C@H](CCC(=O)O)NC(=O)[C@H](CCCCNC(=O)COCCOCCNC(=O)COCCOCCNC(=O)CC[C@H](NC(=O)CCCCCCCCCCCCCCCCCCC(=O)O)C(=O)O)NC(=O)[C@H](Cc1ccc(O)cc1)NC(=O)[C@@H](NC(=O)[C@H](CO)NC(=O)[C@H](Cc1ccc(O)cc1)NC(=O)[C@H](CC(=O)O)NC(=O)[C@H](CO)NC(=O)[C@@H](NC(=O)[C@H](Cc1ccccc1)NC(=O)[C@@H](NC(=O)CNC(=O)[C@H](CCC(=O)O)NC(=O)C(C)(C)NC(=O)[C@@H](N)Cc1ccc(O)cc1)[C@@H](C)O)[C@@H](C)O)[C@@H](C)CC)C(=O)N[C@@H](C)C(=O)N[C@@H](C)C(=O)N[C@@H](CCC(N)=O)C(=O)N[C@@H](CCC(=O)O)C(=O)N[C@@H](Cc1ccccc1)C(=O)N[C@H](C(=O)N[C@@H](CC(N)=O)C(=O)N[C@@H](Cc1c[nH]c2ccccc12)C(=O)N[C@@H](CC(C)C)C(=O)N[C@@H](CC(C)C)C(=O)N[C@@H](C)C(=O)NCC(=O)NCC(=O)N1CCC[C@H]1C(=O)N[C@@H](CO)C(=O)N[C@@H](CO)C(=O)NCC(=O)N[C@@H](C)C(=O)N1CCC[C@H]1C(=O)N1CCC[C@H]1C(=O)N1CCC[C@H]1C(=O)N[C@@H](CO)C(N)=O)C(C)C [Compound 18#] (H-Y[Aib]EGTFTSDYSIYK([AEEA-AEEA-γGlu-C20 diacid])EKIAAQEFVNWLLAGGPSSGAPPPS-NH2)
cumulative food intake ([1]; 3 nmol/kg, 28 days after the administration): 58.2 g | daily food intake ration ([1]; 3 nmol/kg, day 1 after administration): 0.6 ± 0.1 g | daily food intake ration ([1]; 3 nmol/kg, day 1 after administration, listed as 18#): 0.6 g | daily food intake ration ([1]; 3 nmol/kg, day 2 after administration): 1.3 ± 0.5 g | daily food intake ration ([1]; 3 nmol/kg, day 3 after administration): 2 ± 0.5 g | daily food intake ration ([1]; 3 nmol/kg, day 4 after administration): 1.1 ± 0.4 g | daily food intake ration ([1]; 3 nmol/kg, day 5 after administration): 2.2 ± 1.3 g | daily food intake ration ([1]; 3 nmol/kg, day 6 after administration): 2.1 ± 1.1 g | daily food intake ration ([1]; 3 nmol/kg, day 7 after administration): 1.1 ± 0.6 g | daily food intake ration ([1]; 3 nmol/kg, day 8 after administration): 1.6 ± 0.6 g | daily food intake ration ([1]; 3 nmol/kg, day 9 after administration): 2.5 ± 0.9 g | daily food intake ration ([1]; 3 nmol/kg, day 10 after administration): 1.3 ± 0.6 g | daily food intake ration ([1]; 3 nmol/kg, day 11 after administration): 2 ± 0.3 g | daily food intake ration ([1]; 3 nmol/kg, day 12 after administration): 3 ± 1 g | daily food intake ration ([1]; 3 nmol/kg, day 13 after administration): 1.8 ± 1 g | daily food intake ration ([1]; 3 nmol/kg, day 14 after administration): 2.3 ± 1 g | daily food intake ration ([1]; 3 nmol/kg, day 15 after administration): 2.9 ± 0.7 g | daily food intake ration ([1]; 3 nmol/kg, day 16 after administration): 1.5 ± 0.7 g | daily food intake ration ([1]; 3 nmol/kg, day 17 after administration): 2.2 ± 0.5 g | daily food intake ration ([1]; 3 nmol/kg, day 18 after administration): 2.7 ± 0.3 g | daily food intake ration ([1]; 3 nmol/kg, day 19 after administration): 1.7 ± 0.5 g | daily food intake ration ([1]; 3 nmol/kg, day 20 after administration): 2.2 ± 0.5 g | daily food intake ration ([1]; 3 nmol/kg, day 21 after administration): 3.4 ± 0.4 g | daily food intake ration ([1]; 3 nmol/kg, day 22 after administration): 1.8 ± 0.5 g | daily food intake ration ([1]; 3 nmol/kg, day 23 after administration): 2.6 ± 0.4 g | daily food intake ration ([1]; 3 nmol/kg, day 24 after administration): 2.9 ± 0.5 g | daily food intake ration ([1]; 3 nmol/kg, day 25 after administration): 1.8 ± 0.8 g | daily food intake ration ([1]; 3 nmol/kg, day 26 after administration): 2.5 ± 0.9 g | daily food intake ration ([1]; 3 nmol/kg, day 27 after administration): 3.9 ± 0.5 g | daily food intake ration ([1]; 3 nmol/kg, day 28 after administration): 1.3 ± 0.6 g | cumulative food intake ([1]; 3 nmol/kg, within 5 days after the administration): 7.2 g | cumulative food intake ([1]; 10 nmol/kg, 28 days after the administration): 46.8 g | daily food intake ration ([1]; 10 nmol/kg, day 1 after administration): 0.3 ± 0.2 g | daily food intake ration ([1]; 10 nmol/kg, day 1 after administration, listed as 18#): 0.3 g | daily food intake ration ([1]; 10 nmol/kg, day 2 after administration): 0.6 ± 0.6 g | daily food intake ration ([1]; 10 nmol/kg, day 3 after administration): 1.1 ± 0.7 g | daily food intake ration ([1]; 10 nmol/kg, day 4 after administration): 0.7 ± 0.5 g | daily food intake ration ([1]; 10 nmol/kg, day 5 after administration): 1.1 ± 0.5 g | daily food intake ration ([1]; 10 nmol/kg, day 6 after administration): 1.5 ± 0.8 g | daily food intake ration ([1]; 10 nmol/kg, day 7 after administration): 0.8 ± 0.4 g | daily food intake ration ([1]; 10 nmol/kg, day 8 after administration): 1.1 ± 0.7 g | daily food intake ration ([1]; 10 nmol/kg, day 9 after administration): 2 ± 0.6 g | daily food intake ration ([1]; 10 nmol/kg, day 10 after administration): 0.9 ± 0.4 g | daily food intake ration ([1]; 10 nmol/kg, day 11 after administration): 1.8 ± 0.8 g | daily food intake ration ([1]; 10 nmol/kg, day 12 after administration): 2.4 ± 0.6 g | daily food intake ration ([1]; 10 nmol/kg, day 13 after administration): 0.9 ± 0.4 g | daily food intake ration ([1]; 10 nmol/kg, day 14 after administration): 1.7 ± 0.7 g | daily food intake ration ([1]; 10 nmol/kg, day 15 after administration): 3 ± 0.9 g | daily food intake ration ([1]; 10 nmol/kg, day 16 after administration): 1.2 ± 1 g | daily food intake ration ([1]; 10 nmol/kg, day 17 after administration): 2.1 ± 0.9 g | daily food intake ration ([1]; 10 nmol/kg, day 18 after administration): 2.9 ± 0.8 g | daily food intake ration ([1]; 10 nmol/kg, day 19 after administration): 1.3 ± 0.5 g | daily food intake ration ([1]; 10 nmol/kg, day 20 after administration): 2 ± 0.5 g | daily food intake ration ([1]; 10 nmol/kg, day 21 after administration): 3.2 ± 0.6 g | daily food intake ration ([1]; 10 nmol/kg, day 22 after administration): 1 ± 0.4 g | daily food intake ration ([1]; 10 nmol/kg, day 23 after administration): 2.3 ± 0.5 g | daily food intake ration ([1]; 10 nmol/kg, day 24 after administration): 2.5 ± 0.6 g | daily food intake ration ([1]; 10 nmol/kg, day 25 after administration): 1.6 ± 1.2 g | daily food intake ration ([1]; 10 nmol/kg, day 26 after administration): 2.2 ± 0.8 g | daily food intake ration ([1]; 10 nmol/kg, day 27 after administration): 3.6 ± 1^ g | daily food intake ration ([1]; 10 nmol/kg, day 28 after administration): 1 ± 0.5 g | cumulative food intake ([1]; 10 nmol/kg, within 5 days after the administration): 3.9 g | cumulative food intake ([1]; 100 nmol/kg, 28 days after the administration): 36.7 g | daily food intake ration ([1]; 100 nmol/kg, day 1 after administration): 0.2 ± 0.1 g | daily food intake ration ([1]; 100 nmol/kg, day 1 after administration, listed as 18#): 0.2 g | daily food intake ration ([1]; 100 nmol/kg, day 2 after administration): 0.1 ± 0.1 g | daily food intake ration ([1]; 100 nmol/kg, day 3 after administration): 0.4 ± 0.1 g | daily food intake ration ([1]; 100 nmol/kg, day 4 after administration): 0.4 ± 0.2 g | daily food intake ration ([1]; 100 nmol/kg, day 5 after administration): 0.6 ± 0.2 g | daily food intake ration ([1]; 100 nmol/kg, day 6 after administration): 0.7 ± 0.3 g | daily food intake ration ([1]; 100 nmol/kg, day 7 after administration): 0.5 ± 0.2 g | daily food intake ration ([1]; 100 nmol/kg, day 8 after administration): 0.7 ± 0.5 g | daily food intake ration ([1]; 100 nmol/kg, day 9 after administration): 0.9 ± 0.6 g | daily food intake ration ([1]; 100 nmol/kg, day 10 after administration): 0.9 ± 0.6 g | daily food intake ration ([1]; 100 nmol/kg, day 11 after administration): 1.1 ± 0.5 g | daily food intake ration ([1]; 100 nmol/kg, day 12 after administration): 2 ± 1 g | daily food intake ration ([1]; 100 nmol/kg, day 13 after administration): 1.3 ± 0.7 g | daily food intake ration ([1]; 100 nmol/kg, day 14 after administration): 1.7 ± 0.5 g | daily food intake ration ([1]; 100 nmol/kg, day 15 after administration): 2 ± 0.4 g | daily food intake ration ([1]; 100 nmol/kg, day 16 after administration): 1 ± 0.3 g | daily food intake ration ([1]; 100 nmol/kg, day 17 after administration): 1.6 ± 0.3 g | daily food intake ration ([1]; 100 nmol/kg, day 18 after administration): 2 ± 0.4 g | daily food intake ration ([1]; 100 nmol/kg, day 19 after administration): 1.4 ± 0.2 g | daily food intake ration ([1]; 100 nmol/kg, day 20 after administration): 1.8 ± 0.3 g | daily food intake ration ([1]; 100 nmol/kg, day 21 after administration): 2.4 ± 0.3 g | daily food intake ration ([1]; 100 nmol/kg, day 22 after administration): 1.4 ± 0.5 g | daily food intake ration ([1]; 100 nmol/kg, day 23 after administration): 2.1 ± 0.5 g | daily food intake ration ([1]; 100 nmol/kg, day 24 after administration): 2.3 ± 0.4 g | daily food intake ration ([1]; 100 nmol/kg, day 25 after administration): 1.5 ± 0.3 g | daily food intake ration ([1]; 100 nmol/kg, day 26 after administration): 1.6 ± 0.4 g | daily food intake ration ([1]; 100 nmol/kg, day 27 after administration): 2.8 ± 0.3 g | daily food intake ration ([1]; 100 nmol/kg, day 28 after administration): 1.2 ± 0.4 g | cumulative food intake ([1]; 100 nmol/kg, within 5 days after the administration): 1.8 g | EC50 [2]: 0.013 nM | viscera/brain ratio, Epididymal fat ([3]; 3 nmol/kg): 254.6 ± 113.4 % | viscera/brain ratio, Inguinal fat ([3]; 3 nmol/kg): 281.5 ± 140.1 % | viscera/brain ratio, Mesenteric fat ([3]; 3 nmol/kg): 84.8 ± 41.3 % | viscera/brain ratio, Perirenal fat ([3]; 3 nmol/kg): 159.2 ± 87.6 % | viscera/brain ratio, Scapular fat ([3]; 3 nmol/kg): 48 ± 15.3% | viscera/brain ratio, Subcutaneous fat ([3]; 3 nmol/kg): 120 ± 62 % | viscera/brain ratio, Epididymal fat ([3]; 10 nmol/kg): 211.7 ± 80.7 % | viscera/brain ratio, Inguinal fat ([3]; 10 nmol/kg): 194.4 ± 86.2 % | viscera/brain ratio, Mesenteric fat ([3]; 10 nmol/kg): 53.3 ± 14.6 % | viscera/brain ratio, Perirenal fat ([3]; 10 nmol/kg): 109.4 ± 57.1 % | viscera/brain ratio, Scapular fat ([3]; 10 nmol/kg): 42.5 ± 17^ % | viscera/brain ratio, Subcutaneous fat ([3]; 10 nmol/kg): 122 ± 73.2 % | viscera/brain ratio, Epididymal fat ([3]; 100 nmol/kg): 102.9 ± 32.2 % | viscera/brain ratio, Inguinal fat ([3]; 100 nmol/kg): 92 ± 34.5 % | viscera/brain ratio, Mesenteric fat ([3]; 100 nmol/kg): 27.4 ± 11.1 % | viscera/brain ratio, Perirenal fat ([3]; 100 nmol/kg): 46.6 ± 18.2 % | viscera/brain ratio, Scapular fat ([3]; 100 nmol/kg): 32.3 ± 7% | viscera/brain ratio, Subcutaneous fat ([3]; 100 nmol/kg): 57.1 ± 21.2 % | content of fat of each part (except scapular fat) relative to placebo group ([3]; all dose test groups): significantly reduced
